Columns and labels:
[1] = target: T1, Helios (Homo sapiens, UniProt Q96SW2+Q9UKS7); experiment: Helios Cellular Degradation Assay (flow cytometry, Helios-PE antibody staining, 72 h); format: cell-based; conditions: Jurkat cells, 72 h incubation, flow cytometry; for Dmax: Jurkat, read-out: Helios Dmax
T1 construct: fluorescently labelled antibodies against Helios and Ikaros; endogenous in cells; host or cells: Jurkat cells
Method in brief: (§1)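 Flow cytometry of fixed, permeabilized Jurkat cells stained with anti-Helios-PE and anti-Ikaros-Alexa488 (1 h, room temperature) measured remaining protein. Treatment lasted 72 h at 37 °C, 5% CO2, at 80,000 cells/well in RPMI with 10% FBS.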

[2] = target: T2, Ikaros (Homo sapiens, UniProt Q13422); experiment: Helios Cellular Degradation Assay, Ikaros readout (flow cytometry, Ikaros-Alexa488 antibody staining, 72 h); format: cell-based; conditions: Jurkat cells, 72 h incubation, flow cytometry; for Dmax: Jurkat, read-out: Ikaros Dmax
T2 construct: fluorescently labelled antibodies against Helios and Ikaros; endogenous in cells; host or cells: Jurkat cells
Method in brief: as §1

T2 sequence (Q96SW2 whole entry partner): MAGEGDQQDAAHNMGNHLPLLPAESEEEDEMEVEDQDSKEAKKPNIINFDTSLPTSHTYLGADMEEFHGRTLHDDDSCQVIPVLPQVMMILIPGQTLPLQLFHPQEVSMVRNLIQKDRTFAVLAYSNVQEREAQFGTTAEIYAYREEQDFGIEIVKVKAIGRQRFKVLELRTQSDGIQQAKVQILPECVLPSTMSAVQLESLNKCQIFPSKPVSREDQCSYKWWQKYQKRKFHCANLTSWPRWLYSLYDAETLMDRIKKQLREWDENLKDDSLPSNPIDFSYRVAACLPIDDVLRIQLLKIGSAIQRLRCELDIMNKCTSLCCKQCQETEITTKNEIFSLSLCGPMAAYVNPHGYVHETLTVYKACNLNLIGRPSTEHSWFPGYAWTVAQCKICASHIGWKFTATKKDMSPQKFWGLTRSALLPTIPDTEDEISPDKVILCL
T2 sequence (Q16531 whole entry partner): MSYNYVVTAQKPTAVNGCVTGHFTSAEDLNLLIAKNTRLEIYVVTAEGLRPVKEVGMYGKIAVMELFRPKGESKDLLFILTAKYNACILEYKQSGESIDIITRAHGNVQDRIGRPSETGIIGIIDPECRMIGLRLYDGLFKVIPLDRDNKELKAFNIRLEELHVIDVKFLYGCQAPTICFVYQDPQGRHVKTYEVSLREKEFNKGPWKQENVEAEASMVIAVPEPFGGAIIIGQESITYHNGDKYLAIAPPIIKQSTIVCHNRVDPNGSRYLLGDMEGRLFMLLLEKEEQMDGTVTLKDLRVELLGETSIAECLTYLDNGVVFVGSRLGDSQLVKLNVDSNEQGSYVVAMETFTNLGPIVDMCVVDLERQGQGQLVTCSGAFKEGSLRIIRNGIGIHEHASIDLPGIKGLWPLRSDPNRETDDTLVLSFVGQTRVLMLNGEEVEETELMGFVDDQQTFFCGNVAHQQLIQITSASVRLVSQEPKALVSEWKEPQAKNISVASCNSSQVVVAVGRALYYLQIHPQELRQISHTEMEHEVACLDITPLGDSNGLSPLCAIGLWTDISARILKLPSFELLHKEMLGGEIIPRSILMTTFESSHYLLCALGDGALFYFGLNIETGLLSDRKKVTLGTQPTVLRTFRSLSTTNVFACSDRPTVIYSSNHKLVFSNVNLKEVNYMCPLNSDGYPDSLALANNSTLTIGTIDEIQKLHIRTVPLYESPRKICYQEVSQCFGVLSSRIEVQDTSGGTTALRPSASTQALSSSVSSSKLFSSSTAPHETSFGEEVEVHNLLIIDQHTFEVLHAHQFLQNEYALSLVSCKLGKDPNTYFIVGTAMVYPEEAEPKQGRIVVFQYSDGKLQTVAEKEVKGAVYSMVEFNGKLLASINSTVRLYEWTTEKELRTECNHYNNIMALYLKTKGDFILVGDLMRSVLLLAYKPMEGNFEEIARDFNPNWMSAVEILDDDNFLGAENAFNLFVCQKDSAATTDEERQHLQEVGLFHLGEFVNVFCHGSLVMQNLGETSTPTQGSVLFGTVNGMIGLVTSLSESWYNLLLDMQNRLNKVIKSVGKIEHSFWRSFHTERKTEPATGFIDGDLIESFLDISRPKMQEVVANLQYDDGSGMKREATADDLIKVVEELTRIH
T2 sequence (Q13422 whole entry): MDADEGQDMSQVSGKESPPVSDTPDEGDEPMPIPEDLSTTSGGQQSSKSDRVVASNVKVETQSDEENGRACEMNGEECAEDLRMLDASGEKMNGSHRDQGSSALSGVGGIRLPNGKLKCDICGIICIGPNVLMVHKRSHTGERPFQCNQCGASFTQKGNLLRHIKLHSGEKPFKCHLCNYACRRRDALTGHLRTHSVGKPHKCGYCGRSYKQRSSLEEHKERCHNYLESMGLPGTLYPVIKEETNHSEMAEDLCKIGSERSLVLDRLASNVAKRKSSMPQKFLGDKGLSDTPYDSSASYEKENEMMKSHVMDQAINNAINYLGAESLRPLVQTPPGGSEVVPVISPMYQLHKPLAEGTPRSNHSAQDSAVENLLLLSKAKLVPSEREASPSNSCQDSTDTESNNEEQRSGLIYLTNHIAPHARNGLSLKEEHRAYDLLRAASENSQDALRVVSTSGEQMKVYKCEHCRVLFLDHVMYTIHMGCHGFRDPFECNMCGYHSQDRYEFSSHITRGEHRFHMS
T1 sequence (Q9UKS7 whole entry): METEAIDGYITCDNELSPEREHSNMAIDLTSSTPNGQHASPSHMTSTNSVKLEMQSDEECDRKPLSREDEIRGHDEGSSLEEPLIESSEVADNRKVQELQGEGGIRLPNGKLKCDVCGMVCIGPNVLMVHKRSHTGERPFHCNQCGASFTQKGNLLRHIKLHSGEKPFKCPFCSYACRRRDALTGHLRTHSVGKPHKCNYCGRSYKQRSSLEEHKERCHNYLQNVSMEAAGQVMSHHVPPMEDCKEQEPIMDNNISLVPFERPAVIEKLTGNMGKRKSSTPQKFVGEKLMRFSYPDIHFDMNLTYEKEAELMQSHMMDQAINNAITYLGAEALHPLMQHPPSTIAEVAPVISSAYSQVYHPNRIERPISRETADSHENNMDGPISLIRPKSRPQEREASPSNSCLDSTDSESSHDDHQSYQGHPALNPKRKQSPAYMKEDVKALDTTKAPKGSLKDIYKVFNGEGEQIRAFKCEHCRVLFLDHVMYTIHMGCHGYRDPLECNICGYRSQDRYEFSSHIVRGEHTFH
T1 sequence (Q96SW2 whole entry): as the sequence (Q96SW2 whole entry partner) above
T1 sequence (Q16531 whole entry partner): as the sequence (Q16531 whole entry partner) above

Compound	DC50 [1] [nM]	Dmax [1] [%]	DC50 [2] [nM]	Dmax [2] [%]
CC1CN(Cc2ccnc(-c3ccc4c(c3)CN(C3CCC(=O)NC3=O)C4=O)c2)C1 (centres unmarked) [Example 47, 3-(5-(4-((3-methylazetidin-1-yl)methyl)pyridin-2-yl)-1-oxoisoindolin-2-yl)piperidine-2,6-dione]	17	79	> 10000	8
CCN(CC)Cc1ccnc(-c2ccc3c(c2)CN(C2CCC(=O)NC2=O)C3=O)c1 (centres unmarked) [Example 50, 3-(5-(4-((diethylamino)methyl)pyridin-2-yl)-1-oxoisoindolin-2-yl)piperidine-2,6-dione]	22	78	> 10000	12
O=C1CCC(N2Cc3cc(-c4cc(CNCCc5ccccc5)ccn4)ccc3C2=O)C(=O)N1 (centres unmarked) [Example 63, 3-(1-oxo-5-(4-((phenethylamino)methyl)pyridin-2-yl)isoindolin-2-yl)piperidine-2,6-dione]	14	80	> 10000	13
CC(C)N1CCN(Cc2ccnc(-c3ccc4c(c3)CN(C3CCC(=O)NC3=O)C4=O)c2)CC1 (centres unmarked) [Example 44, 3-(5-(4-((4-isopropylpiperazin-1-yl)methyl)pyridin-2-yl)-1-oxoisoindolin-2-yl)piperidine-2,6-dione]	> 10000	36	> 10000	12
O=C1CCC(N2Cc3cc(-c4cc(CN5CCC(Cc6ccccc6)CC5)ccn4)ccc3C2=O)C(=O)N1 (centres unmarked) [Example 38, 3-(5-(4-((4-benzylpiperidin-1-yl)methyl)pyridin-2-yl)-1-oxoisoindolin-2-yl)piperidine-2,6-dione]	87	68	> 10000	6
O=C1CCC(N2Cc3cc(-c4cc(CN5CCN(c6cnccn6)CC5)ccn4)ccc3C2=O)C(=O)N1 (centres unmarked) [Example 26, 3-(1-oxo-5-(4-((4-(pyrazin-2-yl)piperazin-1-yl)methyl)pyridin-2-yl)isoindolin-2-yl)piperidine-2,6-dione]	> 10000	6	> 10000	15
CN(C)[C@@H]1CCN(Cc2ccnc(-c3ccc4c(c3)CN(C3CCC(=O)NC3=O)C4=O)c2)C1 (stereo partly drawn) [Example 45, 3-(5-(4-(((R)-3-(dimethylamino)pyrrolidin-1-yl)methyl)pyridin-2-yl)-1-oxoisoindolin-2-yl)piperidine-2,6-dione]	> 10000	43	> 10000	6
O=C1CCC(N2Cc3cc(-c4cc(CN5CCC6CCCC65)ccn4)ccc3C2=O)C(=O)N1 (centres unmarked) [Example 60, 3-(5-(4-((hexahydrocyclopenta[b]pyrrol-1(2H)-yl)methyl)pyridin-2-yl)-1-oxoisoindolin-2-yl) piperidine-2,6-dione]	548	63	> 10000	19

Other lines, results leading:

DC50 [1] [nM]	Dmax [1] [%]	DC50 [2] [nM]	Dmax [2] [%]	Compound
1310	60	> 10000	4	O=C1CCC(N2Cc3cc(-c4cc(CN5CCC[C@@H](c6ccccc6)C5)ccn4)ccc3C2=O)C(=O)N1 (stereo partly drawn) [Example 135, 3-(1-oxo-5-(4-(((S)-3-phenylpiperidin-1-yl)methyl)pyridin-2-yl)isoindolin-2-yl)piperidine-2,6-dione]
120	60	> 10000	14	O=C1CCC(N2Cc3cc(-c4nccc(CN5CCC5c5ccccc5)c4F)ccc3C2=O)C(=O)N1 (centres unmarked) [Example 193, 3-(5-(3-fluoro-4-((2-phenylazetidin-1-yl)methyl)pyridin-2-yl)-1-oxoisoindolin-2-yl) piperidine-2,6-dione]
8	90	> 10000	11	CC(C)CCNCc1ccnc(-c2ccc3c(c2)CN(C2CCC(=O)NC2=O)C3=O)c1 (centres unmarked) [Example 97, 3-(5-(4-((isopentylamino)methyl)pyridin-2-yl)-1-oxoisoindolin-2-yl)piperidine-2,6-dione]
> 10000	20	> 10000	7	CC1(C)CCCN(Cc2ccnc(-c3ccc4c(c3)CN(C3CCC(=O)NC3=O)C4=O)c2)C1 (centres unmarked) [Example 85, 3-(5-(4-((3,3-dimethylpiperidin-1-yl)methyl)pyridin-2-yl)-1-oxoisoindolin-2-yl)piperidine-2,6-dione]
850	55	> 10000	7	CN(Cc1ccnc(-c2ccc3c(c2)CN(C2CCC(=O)NC2=O)C3=O)c1)Cc1ccc(F)c(F)c1 (centres unmarked) [Example 152, 3-(5-(4-(((3,4-difluorobenzyl)(methyl)amino)methyl)pyridin-2-yl)-1-oxoisoindolin-2-yl)piperidine-2,6-dione]
4710	58	> 10000	7	COC(=O)c1ccc(CN(C)Cc2ccnc(-c3ccc4c(c3)CN(C3CCC(=O)NC3=O)C4=O)c2)cc1 (centres unmarked) [Example 153, methyl 4-((((2-(2-(2,6-dioxopiperidin-3-yl)-1-oxoisoindolin-5-yl)pyridin-4-yl)methyl)(methyl)amino)methyl)benzoate]
45	62	> 10000	13	C[C@H]1CCCN(Cc2ccnc(-c3ccc4c(c3)CN(C3CCC(=O)NC3=O)C4=O)c2)C1 (stereo partly drawn) [Example 73, 3-(5-(4-(((S)-3-methylpiperidin-1-yl)methyl)pyridin-2-yl)-1-oxoisoindolin-2-yl)piperidine-2,6-dione]
75	90	> 10000	12	CN(Cc1ccoc1)Cc1ccnc(-c2ccc3c(c2)CN(C2CCC(=O)NC2=O)C3=O)c1 (centres unmarked) [Example 172, 3-(5-(4-(((furan-3-ylmethyl)(methyl)amino)methyl)pyridin-2-yl)-1-oxoisoindolin-2-yl)piperidine-2,6-dione]
136	76	> 10000	25	CN(Cc1cccnc1)Cc1ccnc(-c2ccc3c(c2)CN(C2CCC(=O)NC2=O)C3=O)c1 (centres unmarked) [Example 159, 3-(5-(4-((methyl(pyridin-3-ylmethyl)amino)methyl)pyridin-2-yl)-1-oxoisoindolin-2-yl)piperidine-2,6-dione]
1580	57	> 10000	0	CN(Cc1ccnc(-c2ccc3c(c2)CN(C2CCC(=O)NC2=O)C3=O)c1)Cc1cccc2cccnc12 (centres unmarked) [Example 155, 3-(5-(4-((methyl(quinolin-8-ylmethyl)amino)methyl)pyridin-2-yl)-1-oxoisoindolin-2-yl)piperidine-2,6-dione]
> 10000	23	> 10000	1	CN(Cc1ccc([N+](=O)[O-])cc1)Cc1ccnc(-c2ccc3c(c2)CN(C2CCC(=O)NC2=O)C3=O)c1 (centres unmarked) [Example 151, 3-(5-(4-((methyl(4-nitrobenzyl)amino)methyl)pyridin-2-yl)-1-oxoisoindolin-2-yl)piperidine-2,6-dione]
84	62	> 10000	0	C[C@@H](c1ccccc1)N(C)Cc1ccnc(-c2ccc3c(c2)CN(C2CCC(=O)NC2=O)C3=O)c1 (stereo partly drawn) [Example 136, 3-(5-(4-((methyl((S)-1-phenylethyl)amino)methyl)pyridin-2-yl)-1-oxoisoindolin-2-yl)piperidine-2,6-dione]

— US11548870B2, “Compounds useful as inhibitors of helios protein” (Bristol-Myers Squibb Company, priority 2019, dated 2023)
